Assay results reported in patent publication US20250092058A1 (priority 2018, published 2025).
Like-named read-outs stand apart in the source and are kept apart here.

Legend:
[1] = tested on: SW620 xenograft tumors; settings: oral weekly for 1-2 times
Source text: (§1) Human xenograft tumors used. In this invention disclose, human SW620 (colorectal), HT29 (colorectal) and HT-3 (retinoblastoma) cancer cell line-established xenograft tumors were used. Human tumor cell line-derived xenograft tumors are initially established by subcutaneously injecting 2-5×10^6 cultured cancer cells in a volume of 100-150 p L medium into the flank area of severe combined immunodeficiency (SCID) mice. The derived tumors are then passed a couple of generations in mice by transplanting 30-50 mg non-necrotic tumor mass via a trocar for experiments or maintenance. […] PDX tumors were originally established on severe Combined Immunodeficiency (SCID) mice from pancreatic and colorectal cancer patient tumor tissues obtained from metastatic sites of the disease in the clinic.
Human SW620 xenograft tumors were initially established by subcutaneously injection of 2-5×10^6 SW620 cells in a volume of 100-150 μL medium. Mouse models of SW620 xenografts were set up by subcutaneously inoculating 30-40 mg tumor tissue (isolated from tumor maintenance SCID mice) on the flank of SCID mice. Treatment with individual compounds was initiated 7-14 days after the transplanted tumors reached 100-200 mm^3 (designated day 0). The treatment schedule is weekly for 1-2 times in a series of dose levels based on the available drug amounts then. The individual compounds were formulated in an organic solvent-free with HPβCD in 2% HPMC (hydroxypropyl methylcellulose) and 1% PG (propylene glycol) in saline (a thick aqueous suspension) for oral administration. The vehicle is the same thick aqueous suspension without drug.

[2] = tested on: A549; test: MTT assay A549; type: cell-based, human; settings: Table 9
Method: (§2) MTT assays. […] Each experiment was performed at least in triplicate.

[3] = tested on: A2008; test: MTT assay A2008; type: cell-based
Method: (§3) MTT assays. […] Viable cells (2500 cells per well) were plated in each well in 96-well plates. After an overnight incubation, cells were treated with and without relevant drugs alone and in combination, respectively, at various concentrations and incubated for 72 hours. MTT, a colorimetric substrate, was added to a final concentration of 0.4 mg/ml to each well. Cells in 96-well plates were further incubated in a 5% CO2 incubator at 37° C. for 4 hours, and then the medium was aspirated. The MTT metabolic product formazan was solubilized by adding 200 ul of DMSO to each well. Absorbance in the relevant wells was measured at 570 nm using an Ultra Microplate Reader (Bio-Tek Instruments). Each experiment was performed at least in triplicate. IC50/EC50 values were calculated from a series of drug dose ranges for each analyzed compound, using GraphPad Prism 6 (GraphPad Software, Inc., La Jolla, CA).
(§4) The inhibition of cell growth and viability in various cancer cell types were tested using MTT assay for references.

[4] = tested on: PDX14244 and PDX27454; test: Pancreatic PDX14244 (left flank) and colorectal PDX27454 (right flank) in the same SCID mice; type: in vivo; settings: for antitumor activity, 7Q-series (1): oral weekly for 4 times
Method: Human xenograft tumors used.
The vehicle is the same aqueous suspension without FL7N-1. Experimental SCID mice were subcutaneously implanted with 30-40 mg individual PDX tumors (isolated from maintenance mice) at the flank area (left side for PDX14244, and right side for PDX27454) of SCID mice. […] The animal model of PDX tumors was orally treated weekly for 3 times as shown with black arrows. […] Thus, FL7N-1 may be a priority candidate to be developed for treatment of children rare disease retinoblastoma.
(§5) The vehicle is the same think aqueous suspension without drug. Experimental SCID mice were subcutaneously implanted with 30-40 mg individual PDX tumors (isolated from maintenance mice) at the flank area (left side for PDX14244, and right side for PDX27454) of SCID mice. […] The animal model of PDX tumors was orally treated weekly for 3 times as shown with black arrows.
as §5, with “for 4” for “for 3”, “times (one cycle/course,” for “times”, “black arrows).” for “black arrows.”
as §5, with “times in two doses due to drug limitation then (as” for “times as”, “black arrows).” for “black arrows.”

[5] = tested on: HCT116; test: MTT assay HCT116; type: cell-based, human; settings: Table 8
Method: as §2

[6] = tested on: H1376
Method: as §3, §4

[7] = tested on: UMUC-3
Method: as §3, §4

[8] = tested on: UOK151
Method: as §3, §4

[9] = tested on: UOK262
Method: as §3, §4

[10] = tested on: HT-3 retinoblastoma xenograft tumors
Method: Human HT-3 retinoblastoma xenograft tumors were initially established by subcutaneously injection of 2-5×10^6 HT-3 cells in a volume of 100-200 μL medium. Mouse models of HT-3 xenografts were set up by subcutaneously inoculating 30-40 mg tumor tissue on the flank of SCID mice. Treatment with individual compounds was initiated 7-14 days after the transplanted tumors reached 100-200 mm^3 (designated day 0). […] The individual compounds were formulated in an organic solvent-free with HPPCD as drug carriers in 2% HPMC (hydroxypropyl methylcellulose) and 1% PG (propylene glycol) in saline (a thick aqueous suspension) for oral administration. The vehicle is the same thick aqueous suspension without drug. A. FL7s-3-treated xenograft tumor curve profile (left panel) and body weight profile (right panel) over the experimental period. B. FL7s-4-treated xenograft tumor curve profile (left panel) and body weight profile (right panel) over the experimental period. C. FL7s-7-treated xenograft tumor curve profile (left panel) and body weight profile (right panel) over the experimental period.
as §1
To these three novel compounds, we performed in vivo animal model studies to evaluate their antitumor activity and toxicity using the HT-3 retinoblastoma xenograft tumor models. In this experiment, we still took advantage of the newly developed formulation for oral administration of compounds.

[11] = tested on: FaDu; test: MTT assay FaDu; type: cell-based; settings: Table 5 lower part; FaDu head-and-neck cancer
Method: as §3, §4

[12] = tested on: T24; test: MTT assay T24; type: cell-based; settings: Table 5 lower part; T24 bladder cancer
Method: as §3, §4

[13] = tested on: HT-3; test: MTT assay HT-3; type: cell-based, human; settings: Table 5 lower part
Method: as §3, §4

[14] = tested on: RT4; test: MTT assay RT4; type: cell-based; settings: Table 5 lower part; RT4 bladder cancer
Method: as §3, §4

[15] = tested on: PDX10978; test: Pancreatic cancer PDX10978 in SCID mice; type: in vivo; settings: FL118 0.75 mg/kg or gemcitabine 60 mg/kg ip qw×4
Method: Human pancreatic cancer patient-derived xenograft (PDX) tumor mouse model and treatment. Experiments followed the IACUC-approved mouse protocol. Briefly, human PDAC PDX tumors maintained on SCID mice were isolated, and a piece of non-necrotic tumor tissues (30-40 mg) were subcutaneously transplanted into the flank area of female SCID mice. […] In this study, we used the timesaving intraperitoneal (ip) route for drug administration. […] The formulation process was described in detail in our previous patent (PCT/US2011/058558). […] Tumor length (L) and width (W) were measured using digital vernier calipers 1-3 times per week until the end of experimental studies. The tumor volume (v) was calculated using the formula: v=0.5 (L×W^2). Then the tumor size was divided by the day 0 tumor size as percentage tumor size versus day 0. The mean tumor volume ± standard deviation (SD) at each time point was derived from 5 mice in each group. The tumor curves were made using Sigma Plot software.
It has been recently documented that pancreatic cancer PDXs retain active paracrine/Hedgehog signaling, and desmoplasia is active in PDX tumor mouse models.

[16] = oral one time, 5, 10 and 15 mg/kg
[17] = Table 5 lower part, H1376 bladder cancer
[18] = Table 5 lower part, UMUC-3 bladder cancer
[19] = Table 5 lower part, A2008 ovarian cancer

SMILES | antitumor activity [1] | IC50/EC50 [2] [nM] | IC50/EC50 ([3]; Table 9, A2008) [nM] | IC50/EC50 [11] [nM] | IC50/EC50 [12] [nM] | IC50/EC50 [6, 17] [nM] | IC50/EC50 [7, 18] [nM] | IC50/EC50 [3, 19] [nM] | IC50/EC50 [14] [nM] | other results
CC[C@@]1(O)C(=O)OCc2c1cc1n(c2=O)Cc2c-1nc1cc3c(cc1c2-c1ccoc1)OCO3 [W-b3] | much higher antitumor activity than the other compounds in this Wb-series | 0.92 | 16.15 |  |  |  |  |  |  | 
CC[C@@]1(O)C(=O)OCc2c1cc1n(c2=O)Cc2c-1nc1cc3c(cc1c2CCN1CCOCC1)OCO3 [Compound 7N1, 20 (S)-7-morpholinylethyl-10,11-methylenedioxy-camptothecin] |  |  |  |  |  |  |  |  |  | antitumor activity ([4]; oral weekly for 3 times): very good; IC50/EC50 [5]: 11.6 nM; IC50/EC50 ([6]; Table 8, H1376): >500 nM; IC50/EC50 ([7]; Table 8, UMUC-3): 2.05 nM; IC50/EC50 ([8]; Table 8, UOK151): 42.8 nM; IC50/EC50 ([9]; Table 8, UOK262): 38 nM; antitumor activity [10, 16]: exceptional antitumor activity in all three doses used; toxicity (mouse body weight loss) [10, 16]: without showing toxicity; antitumor activity and toxicity profile ([10]; oral, one time, 3-4 doses): great antitumor activity and favorable toxicity profiles
CC[C@@]1(O)C(=O)OCc2c1cc1n(c2=O)Cc2c-1nc1cc3c(cc1c2-c1cc(OC)cc(OC)c1)OCO3 [7Q 24] |  |  |  | 0.68 | 0.08 | 246 | 0.21 | 1.95 | 1.44 | antitumor activity, 7Q-series (1) [4]: much higher antitumor activity than the other compounds in this 7Q-series (1); IC50/EC50 ([13]; HT-3): 3.59 nM
CC[C@@]1(O)C(=O)OCc2c1cc1n(c2=O)Cc2c-1nc1cc3c(cc1c2-c1cccnc1)OCO3 [W-b2] | much higher antitumor activity than the other compounds in this Wb-series | 2.24 | 4.6 |  |  |  |  |  |  | 
Nc1ccn([C@@H]2O[C@H](CO)[C@@H](O)C2(F)F)c(=O)n1 [gemcitabine, reference compound] |  |  |  |  |  |  |  |  |  | antitumor efficacy, single agent [15]: only delayed tumor growth
CC[C@@]1(O)C(=O)OCc2c1cc1n(c2=O)Cc2c-1nc1cc3c(cc1c2-c1cccs1)OCO3 [W-b6] | much higher antitumor activity than the other compounds in this Wb-series | 1.2 | 11.1 |  |  |  |  |  |  | 
CC[C@@]1(O)C(=O)OCc2c1cc1n(c2=O)Cc2cc3c(CN(C)C)c(O)ccc3nc2-1 [Topotecan, reference compound] |  |  |  | 26.63 | 37.2 | >500 | 52.8 | 46.1 | 96.4 | IC50/EC50 ([6]; Table 8, H1376): >500 nM; IC50/EC50 ([7]; Table 8, UMUC-3): 52.8 nM; IC50/EC50 ([8]; Table 5 lower part, UOK151 kidney cancer): >200 nM; IC50/EC50 ([8]; Table 8, UOK151): >200 nM; IC50/EC50 ([8]; Table 10, UOK151): >200 nM; IC50/EC50 ([9]; Table 5 lower part, UOK262 kidney cancer): >200 nM; IC50/EC50 ([9]; Table 8, UOK262): >200 nM; IC50/EC50 ([9]; Table 10, UOK262): >200 nM; IC50/EC50 ([13]; HT-3 cervical carcinoma): 83.42 nM
CCc1ccc(-c2c3c(nc4cc5c(cc24)OCO5)-c2cc4c(c(=O)n2C3)COC(=O)[C@]4(O)CC)cc1 [7Q 6] |  |  |  | 0.85 | 0.19 | 386 | 0.4 | 1.34 | 1.51 | antitumor activity, 7Q-series (1) [4]: much higher antitumor activity than the other compounds in this 7Q-series (1); IC50/EC50 ([13]; HT-3): 3.11 nM
